Experimental data as given in ChEMBL document CHEMBL5729675, “Sulfonamide compound or salt thereof” (2023).

Target: Ribonucleotide reductase (Homo sapiens, UniProt P23921+Q7LG56)
Assay: Human RNR Inhibition Effect: The inhibitory activity against the ribonucleotide reduction reaction (hereinafter referred to as RNR reaction) of the test compound was determined by measuring the formation of deoxycytidine diphosphate (hereinafter referred to as dCDP) from cytidine diphosphate (hereinafter referred to as CDP) by the following method.Human M1 subunit and human M2 subunit (mutant …

Sequence of Ribonucleotide reductase (P23921 whole entry, looked up): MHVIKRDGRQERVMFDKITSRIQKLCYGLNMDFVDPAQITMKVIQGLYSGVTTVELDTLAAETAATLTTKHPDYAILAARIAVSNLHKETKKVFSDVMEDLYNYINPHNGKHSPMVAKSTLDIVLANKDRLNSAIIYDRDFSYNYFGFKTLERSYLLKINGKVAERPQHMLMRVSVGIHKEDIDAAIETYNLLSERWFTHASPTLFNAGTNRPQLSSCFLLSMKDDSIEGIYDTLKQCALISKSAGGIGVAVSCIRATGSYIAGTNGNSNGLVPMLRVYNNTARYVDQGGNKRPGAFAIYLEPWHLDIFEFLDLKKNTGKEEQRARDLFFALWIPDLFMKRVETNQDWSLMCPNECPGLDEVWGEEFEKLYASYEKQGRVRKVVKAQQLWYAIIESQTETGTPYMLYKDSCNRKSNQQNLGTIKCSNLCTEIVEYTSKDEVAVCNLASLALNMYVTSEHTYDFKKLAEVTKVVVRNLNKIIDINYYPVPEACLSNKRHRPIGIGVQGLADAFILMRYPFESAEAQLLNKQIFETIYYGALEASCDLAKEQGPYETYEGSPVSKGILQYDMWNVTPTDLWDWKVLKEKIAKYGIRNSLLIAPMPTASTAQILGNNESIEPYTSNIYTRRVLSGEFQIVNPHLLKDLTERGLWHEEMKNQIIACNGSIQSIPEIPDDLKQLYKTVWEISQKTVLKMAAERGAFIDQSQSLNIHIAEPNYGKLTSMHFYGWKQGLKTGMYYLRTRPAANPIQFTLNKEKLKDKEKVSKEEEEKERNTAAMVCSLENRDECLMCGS
Sequence of Ribonucleotide reductase (Q7LG56 whole entry, looked up): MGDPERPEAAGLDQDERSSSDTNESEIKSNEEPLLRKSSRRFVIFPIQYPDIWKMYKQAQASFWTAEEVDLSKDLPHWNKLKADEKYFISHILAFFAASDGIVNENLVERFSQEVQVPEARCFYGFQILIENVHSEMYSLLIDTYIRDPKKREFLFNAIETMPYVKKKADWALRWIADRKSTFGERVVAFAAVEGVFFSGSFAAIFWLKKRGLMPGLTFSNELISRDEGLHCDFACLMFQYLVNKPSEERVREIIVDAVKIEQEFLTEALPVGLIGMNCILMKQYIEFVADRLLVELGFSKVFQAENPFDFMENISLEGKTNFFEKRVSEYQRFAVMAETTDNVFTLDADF

Work on `Cc1ccc(F)c([C@@H](C)[C@H](NS(=O)(=O)c2ccc([N+](=O)[O-])cc2)c2n[nH]c(=O)o2)c1C` yielded an IC50 of 270 nM.

In the case of `Cc1ccc(F)c([C@@H](C)[C@H](NS(=O)(=O)c2ccc(Cl)c(-c3cnn(C)c3)c2)c2n[nH]c(=O)o2)c1C`, the IC50 is reported as 220 nM.

With `COc1cc(Cl)ccc1S(=O)(=O)N[C@H](c1n[nH]c(=O)o1)[C@H](C)c1c(F)ccc(-c2ccc(Cl)nc2)c1C` the IC50 was 340 nM.

In the case of `COc1cc(Cl)ccc1S(=O)(=O)N[C@H](c1n[nH]c(=O)o1)[C@H](C)c1c(F)ccc(-c2cnn(C(F)F)c2)c1C`, the IC50 is reported as 160 nM.

`COC(=O)c1cc(S(=O)(=O)N[C@H](c2n[nH]c(=S)o2)[C@H](C)c2cccc3c2CCC3)ccc1Cl` showed an IC50 of 830 nM.

For `COc1ccc(-c2ccc(F)c([C@@H](C)[C@H](NS(=O)(=O)c3ccc(Cl)cc3OC)c3n[nH]c(=O)o3)c2C)cc1`, the IC50 was 300 nM.

For `COc1cc(Cl)ccc1S(=O)(=O)N[C@H](c1n[nH]c(=O)o1)[C@H](C)c1c(F)ccc(-c2ccc(Cl)cc2)c1C`, the IC50 was 490 nM.

For `COc1cc(Cl)ccc1S(=O)(=O)N[C@H](c1n[nH]c(=O)o1)[C@H](C)c1c(F)ccc(-c2cnn(C3CCC3)c2)c1C`, the IC50 was 220 nM.

Work on `COc1cc(Cl)ccc1S(=O)(=O)N[C@H](c1n[nH]c(=O)o1)[C@H](C)c1c(F)ccc(-c2cc(F)cc(F)c2)c1C` yielded an IC50 of 940 nM.

Compound `COc1cc(Cl)ccc1S(=O)(=O)N[C@H](c1n[nH]c(=O)o1)[C@H](C)c1c(F)ccc(-c2cncc(C(=O)N3CCOCC3)c2)c1C` has an IC50 of 420 nM.

Compound `COc1ccc(-c2cc(S(=O)(=O)N[C@H](c3n[nH]c(=O)o3)[C@H](C)c3c(F)ccc(C)c3C)ccc2Cl)cc1` has an IC50 of 720 nM.

In the case of `COc1cc(Cl)ccc1S(=O)(=O)N[C@H](c1n[nH]c(=O)o1)[C@H](C)c1c(F)ccc(-c2cc[nH]n2)c1C`, the IC50 is reported as 290 nM.

In the case of `Cc1c(Br)ccc(F)c1[C@@H](C)[C@H](NS(=O)(=O)c1ccc(Cl)c2c1OCCC2(C)N)c1n[nH]c(=O)o1` (stereo not given in full), the IC50 is reported as 60 nM.

For `COc1cc(Cl)ccc1S(=O)(=O)N[C@H](c1n[nH]c(=O)o1)[C@H](C)c1c(F)ccc(-c2cnn(C)c2)c1C`, the IC50 was 90 nM.

Compound `COc1cc(Cl)ccc1S(=O)(=O)N[C@H](c1n[nH]c(=O)o1)[C@H](C)c1c(F)ccc(-c2cn(C)nc2C)c1C` has an IC50 of 280 nM.

`COc1cc(Cl)ccc1S(=O)(=O)N[C@H](c1n[nH]c(=O)o1)[C@H](C)c1c(F)ccc(-c2cnc3c(c2)OCCN3C)c1C` gave an IC50 of 220 nM.

`Cc1c(-c2cnn(C)c2)ccc(F)c1[C@@H](C)[C@H](NS(=O)(=O)c1ccc(Cl)cc1C(N)=O)c1n[nH]c(=O)o1` was tested, and the IC50 was 170 nM.

Work on `COc1cc(C#N)ccc1S(=O)(=O)N[C@H](c1n[nH]c(=O)o1)[C@H](C)c1c(F)ccc(C)c1C` yielded an IC50 of 90 nM.

With `COc1cc(Cl)ccc1S(=O)(=O)N[C@H](c1n[nH]c(=O)o1)[C@H](C)c1c(F)ccc(-c2c[nH]nc2C)c1C` the IC50 was 180 nM.

`Cc1ccc(F)c([C@@H](C)[C@H](NS(=O)(=O)c2ccc(C#N)cc2)c2n[nH]c(=O)o2)c1C` showed an IC50 of 410 nM.

`COc1cc(Cl)ccc1S(=O)(=O)N[C@H](c1n[nH]c(=O)o1)[C@H](C)c1c(F)ccc(-c2ccc(N3CCCCC3)nc2)c1C` gave an IC50 of 600 nM.

For `Cc1ccc(F)c([C@@H](C)[C@H](NS(=O)(=O)c2ccc(Br)cc2C(N)=O)c2n[nH]c(=S)o2)c1C`, the IC50 was 130 nM.

With `Cc1ccc(F)c([C@@H](C)[C@H](NS(=O)(=O)c2ccc(Br)c(C#N)c2)c2n[nH]c(=O)o2)c1C` the IC50 was 640 nM.

Compound `COc1ccc(-c2ccc(F)c([C@@H](C)[C@H](NS(=O)(=O)c3ccc(Cl)cc3OC)c3n[nH]c(=O)o3)c2C)cn1` has an IC50 of 260 nM.

In the case of `COc1cc(Cl)ccc1S(=O)(=O)N[C@H](c1n[nH]c(=O)o1)[C@H](C)c1c(F)ccc(-c2cn[nH]c2)c1C`, the IC50 is reported as 160 nM.

For `COc1cc(Cl)ccc1S(=O)(=O)N[C@H](c1noc(=O)[nH]1)[C@H](C)c1c(F)ccc(C)c1C`, the IC50 was 250 nM.

In the case of `COc1cc(Cl)ccc1S(=O)(=O)N[C@H](c1n[nH]c(=O)o1)[C@H](C)c1c(F)ccc(-c2ccc(N3CCOCC3)nc2)c1C`, the IC50 is reported as 190 nM.

For `COc1cc(Cl)ccc1S(=O)(=O)N[C@H](c1n[nH]c(=S)[nH]1)[C@H](C)c1c(F)ccc(C)c1C`, the IC50 was 460 nM.

With `CCn1cc(-c2ccc(F)c([C@@H](C)[C@H](NS(=O)(=O)c3ccc(Cl)cc3OC)c3n[nH]c(=O)o3)c2C)cn1` the IC50 was 170 nM.

For `Cc1ccc(F)c([C@@H](C)[C@@H](c2n[nH]c(=O)o2)N(C)S(=O)(=O)c2ccc(Cl)cc2C(N)=O)c1C`, the IC50 was 80 nM.

Work on `COc1cc(Cl)ccc1S(=O)(=O)N[C@H](c1n[nH]c(=O)o1)[C@H](C)c1c(F)ccc(-c2cccnc2)c1C` yielded an IC50 of 340 nM.

Work on `COC(=O)c1c(Cl)ccc(S(=O)(=O)N[C@H](c2n[nH]c(=S)o2)[C@H](C)c2cccc3c2CCC3)c1Cl` yielded an IC50 of 310 nM.

`COc1ncc(-c2ccc(F)c([C@@H](C)[C@H](NS(=O)(=O)c3ccc(Cl)cc3OC)c3n[nH]c(=O)o3)c2C)cn1` gave an IC50 of 280 nM.

`Cc1cccc([C@@H](C)[C@H](NS(=O)(=O)c2ccc(Cl)c3c2OCC=C3)c2n[nH]c(=O)o2)c1C` gave an IC50 of 790 nM.

In the case of `Cc1ccc(F)c([C@@H](C)[C@H](NS(=O)(=O)c2ccc(Br)cc2OC(F)(F)F)c2n[nH]c(=O)o2)c1C`, the IC50 is reported as 100 nM.

With `COc1ccccc1-c1ccc(C(N)=O)c(S(=O)(=O)N[C@H](c2n[nH]c(=O)o2)[C@H](C)c2c(F)ccc(C)c2C)c1` the IC50 was 250 nM.

With `COc1cc(Cl)ccc1S(=O)(=O)N[C@H](c1n[nH]c(=O)o1)[C@H](C)c1c(F)ccc(-c2cnn(C3CC3)c2)c1C` the IC50 was 220 nM.

In the case of `COc1cc(Cl)ccc1S(=O)(=O)N[C@H](c1n[nH]c(=O)o1)[C@H](C)c1c(F)ccc(-c2cncnc2)c1C`, the IC50 is reported as 540 nM.

`Cc1ccc(F)c([C@@H](C)[C@H](NS(=O)(=O)c2cc(-c3nnco3)ccc2C(N)=O)c2n[nH]c(=O)o2)c1C` was tested, and the IC50 was 90 nM.

`COc1cc(C(N)=O)ccc1S(=O)(=O)N[C@H](c1n[nH]c(=O)o1)[C@H](C)c1c(F)ccc(C)c1C` showed an IC50 of 420 nM.
